In patent US4740505A, “Pyridazinyloxy (or thio) phenyl phosphates” (priority 1985, dated 1988):
Where two headings read alike, the source gives them in different places.

Key:
Tetranychus urticae = assay: Effectiveness on Tetranychus urticae (rating of effects on kidney bean seedlings); assay type: in vivo; details: 500 ppm, 20 ml, rating based on percent decrease; for Rating of effect Day-2: 2nd day after treatment; for Rating of effect Day-7: 7th day after treatment
Protocol: Effectiveness on Tetranychus urticae
Each of the compounds listed in the following table is processed into an emulsifiable concentrate in accordance with the formulation of Example 6. The emulsifiable concentrate is diluted with water (Dyne®, a spreading agent produced by Takeda Chemical Ind. Ltd., as diluted 3,000-fold) to prepare a 500 ppm aqueous solution. Ten female adult of Tetranychus urticae are put into each kidney been seedling raised in a jiffy pot (6 cm in diameter), and left in a glass house at 28° C. for 24 hours. Each pot is taken out of the glass house; 20 ml of the aqueous solution as prepared above is spread over each kidney bean seedling. The jiffy pots are laid in the glass house again. Larvae and adult which are alive on the leaves are counted at the 2nd and 7th days after the spreading treatment. The test is repeated two times. The degrees are determined on the basis of percent decrease.

Spodoptera litura = assay: Effectiveness on Spodoptera litura (mortality of 3rd instar larvae on sprayed soybean leaves); assay type: in vivo
Protocol: Effectiveness of Spondoptera litura
Each of the test compounds listed in the following table is processed into an emulsifiable concentrate in accordance with the formulation of Example 6. The emulsifiable concentrate is diluted with water (Dyne®, a spreading agent produced by Takeda Chemical Ind. Ltd., as diluted 3,000-fold) to prepare a 100 ppm aqueous solution.
Using a spray gun (nozzle pressure of 1 kg/cm^2 gauge), 20 ml of the aqueous 100 ppm solution is sprayed over soybean seedlings in a spraying chamber (on 10th day after germination) which have been raised in jiffy pots (6 cm in diameter). Two main leaves are respectively cut off from the seedlings 2 hours and 6 days after the spraying. Each of the leaves is put into an ice cream cup (diameter: 6 cm, depth: 4 cm), and 10 larvae of Spodoptera litura at the 3rd instar are put into each of the cups. The cups are left in a room at 25° C.; after 48 hours, dead larvae are counted. The test is repeated two times. The results are shown in terms of mortality (%) in Table 6. [formula]
The following compounds are used for controls.
The same compounds are used for controls also in the following Test Examples.

[1] = Toxicological test: oral acute toxicity in mice; design: species or system mice (ddY-SLC strained male); details: mouse, in vivo, five-week aged ddY-SLC male mice
[2] = 100 ppm spray, leaves cut 6 days after spraying, dead larvae counted after 48 hours, 25° C., read-out: Mortality 6th day after spraying
[3] = 48 h, read-out: Mortality 2 hours after spraying

SMILES	Rating of effect Day-2 (Tetranychus urticae)	Rating of effect Day-7 (Tetranychus urticae)	mortality at 100 ppm (Spodoptera litura; [2]) [%]	mortality at 100 ppm (Spodoptera litura; [3]) [%]	LD50 [1] [mg/kg]
CCCSP(=S)(OCC)Oc1ccccc1Oc1ccc(Br)nn1 (stereo not shown) [compound 25]	3 (≥90)	3 (≥90)	100	100	> 300
CCCSP(=O)(OCC)Oc1ccccc1Sc1ccc(Br)nn1 (stereo not shown) [compound 26]	3 (≥90)	3 (≥90)	95	100	~300
CCCSP(=S)(OCC)Oc1ccccc1Oc1ccc(C)nn1 (stereo not shown) [compound 38]	3 (≥90)	3 (≥90)	100	100	> 300
CCCSP(=O)(OCC)Oc1ccccc1Oc1ccc(SCC)nn1 (stereo not shown) [compound 41]	3 (≥90)	3 (≥90)	100	100	~300
CCCSP(=S)(OCC)Oc1ccccc1Oc1ccc(SCC)nn1 (stereo not shown) [compound 42]	3 (≥90)	3 (≥90)	100	100	> 300
